Paper PMC12520456, “Regulating Enzyme Activity via Microaggregates Mediated by Phase Separation” (Advanced Science, 2025)
Non-standard residues stand in square brackets, D forms with d. Residues, ends and D or L forms follow the SMILES beside them.

Assays:
[1] = system: NIH-3T3 or HUVEC; experiment: Annexin V/PI apoptosis assay by flow cytometry; type: cell-based; details: 48 h; DPMD, also pre-incubated with trypsin or chymotrypsin; Figure S14B
Procedure: (§1) and the product's absorbance at […] was dynamically and real-time monitored using a microplate […]
(§2) During the chymotrypsin activity assay, DPMD was incorporated into chymotrypsin. The final concentration of chymotrypsin was set at 10 μg/mL, and the final concentration of DPMD was 5 mg/mL. In the corresponding control group, an equal volume of the buffer solution prepared by the kit was added. Subsequently, the enzyme-peptide mixture was added to the reaction system containing the substrate N-Benzoyl-L-Tyrosine Ethyl Ester (BTEE) at a ratio of 1:100 (where the proportion of the enzyme-peptide mixture solution was 1) for the detection of enzyme activity. The reaction was carried out at 25 ℃, and the product's absorbance at 256 nm was dynamically and real-time monitored using a microplate reader. The experimental result was represented by the enzyme reaction's degree of completion. All the tests were repeated three independent times.
(§3) NIH-3T3 cells were obtained from the National Collection of Authenticated Cell Cultures. […] Cell viability was evaluated by the CCK-8 assay (Dojindo) at 1-, 3-, 5-, and 7-days post-treatment. […] The absorbance at 450 nm was recorded using a microplate reader […]
was performed using an Annexin V-Alexa Fluor 647/PI kit (Solarbio) according to the manufacturer’ s protocol. […] Samples were analyzed within 1h on a Sony MA900 flow cytometer.
3.12 Animal fluorescence imaging […]

[2] = molecular target: T1, chymotrypsin pre-incubated with aprotinin (Bos taurus, UniProt P00766); experiment: Fluorescence anisotropy binding, aprotinin-blocked chymotrypsin; details: inhibitor and protein both at 20 μM; Figure S3C
T1 construct: purchased Aladdin (chymotrypsin); Yeasen Biotechnology (aprotinin)
Description: Figure S3. The fluorescent anisotropy evaluation of binding affinity between DPMD peptide with Proteinase K (A), and inhibitor-saturated and blocked trypsin (B) and chymotrypsin (C). Trypsin/Chymotrypsin was saturated and blocked by aprotinin (Yeasen Biotechnology, trypsin/chymotrypsin inhibitor). (D-H) The fluorescent anisotropy evaluation of binding affinity between DPMD peptide with elastase (D), lipase (E), amylase(F), carboxypeptidase (G), albumin (H) and immunoglobulins (I).
Figure S4. The DLS analysis of trypsin, chymotrypsin and DPMD with/without trypsin or chymotrypsin. […]
data acquisition. A series of enzyme solutions with varying concentrations (maximum concentrations of trypsin and chymotrypsin were 20 μM each) were prepared in Tris-HCl buffer (10 mM Tris, 150 mM NaCl, 1 mM EDTA, pH 7.0). These enzyme solutions were added to the 96-well plate and incubated with 100 nM DPMD at room temperature for 30 minutes, with triplicates.
Fluorescence polarization was measured with an excitation wavelength of 470 nm and an emission […]
Plot the fluorescence intensity versus concentration data as scatter plots using Origin software.
For data analysis, fit the concentration-fluorescence polarization data with the logistic function in Origin 2021 software to obtain the fitting curve and determine the half-maximal effective concentration (EC50). […]

[3] = system: HUVEC; type: cell-based; details: 48 h
Procedure: as §1, §2
as §3, with “Cultures. HUVECs were obtained from Procell. All cells were maintained in DMEM media at 37°C with 5% CO₂.” for “Cultures.”

[4] = system: NIH-3T3 cells; type: cell-based; details: 48 h
Procedure: as §1, §2
as §3, with “Cultures. HUVECs were obtained from Procell. All cells were maintained in DMEM media at 37°C with 5% CO₂.” for “Cultures.”

CC[C@@H](C)[C@@H](NC(=O)[C@@H](CCC(N)=O)NC(=O)[C@H](NC(=O)[C@@H](Cc1ccc(O)cc1)NC(=O)CNC(=O)[C@@H](CC(C)C)NC(=O)[C@H](NC(=O)[C@@H](CO)NC(=O)CNC(=O)[C@@H](C)NC(=O)[C@@H](CC(=O)O)NC(=O)[C@@H](C)NC(=O)[C@@H](CCCNC(=N)N)NC(=O)[C@@H](C)NC(=O)[C@@H](CC(=O)O)NC(=O)[C@@H](C)NC(=O)[C@@H](CCCNC(=N)N)NC(=O)[C@@H](C)NC(=O)[C@@H](CC(=O)O)NC(=O)[C@@H](C)NC(=O)[C@@H](CCCNC(=N)N)NC(=O)[C@@H](C)NC(=O)[C@@H](CC(=O)O)NC(=O)[C@@H](C)NC(=O)[C@H](N)CCCNC(=N)N)C(C)C)[C@H](C)CC)C(=O)N[C@H](CCCNC(=N)N)C(=O)O [DPMD, Ac‐(D‐RADA)4‐CONH2] (H-[dR][dA][dD][dA][dR][dA][dD][dA][dR][dA][dD][dA][dR][dA][dD][dA]G[dS][dV][dL]G[dY][dI][dQ][dI][dR]-OH; N-terminus and C-terminus assumed)
apoptosis or necrosis (Annexin V/PI) [1]: no increase in apoptosis or necrosis | anisotropy change with aprotinin-blocked chymotrypsin [2]: only a minimal anisotropy change | β-sheet content: 33.9% | cell viability [3]: > 90% | cell viability [4]: > 90%
